Reference: patent publication US12083094B2, “Cannabinoid composition and methods of treatment using the same” (CANNPAL ANIMAL THERAPEUTICS LIMITED, priority 2018, dated 2024)
Several values for one entry are separate records, joined by “and”; a condition that tells them apart may be missing. Equal entries are not always repeated.

Assay: Blood sampling for THC and CBD plasma concentration after single oral dosing
Settings: for concentration at 12 h: 12 hours post administration; for AUC: AUC for CBD concentration, canine
Procedure: Two compositions, IVP1 and IVP2, were administered in varying amounts in the study.
Dosage volumes were calculated prior to Day 0, to provide the target dosage in mg/kg bodyweight based on actual dog bodyweights and IVP active ingredient composition based on the Certificates of Analysis.
Blood samples of approximately 5 mL were collected at each drug concentration sampling time-point from each animal using 22-gauge needles and 5 mL syringes.
The data points from Table 4 and Table 5 were also plotted and these graphs are set out in FIGS. 1-16.

**Q.** What does the source list for `C=C(C)[C@@H]1CCC(C)=C[C@H]1c1c(O)cc(CCCCC)cc1O` [CBD, Cannabidiol]?
**A.** concentration at 32 h (dog, plasma, oral, CBD concentration in blood plasma, mean of dogs 5-8, 0.24 mg/kg CBD + 0.12 mg/kg THC oral once, 32 h): 0.34 ng/mL; concentration at 48 h (dog, plasma, oral, CBD concentration in blood plasma, mean of dogs 5-8, 0.24 mg/kg CBD + 0.12 mg/kg THC oral once, 48 h): 0.13 ng/mL; concentration at 72 h (dog, plasma, oral, CBD concentration in blood plasma, mean of dogs 5-8, 0.24 mg/kg CBD + 0.12 mg/kg THC oral once, 72 h): 0 ng/mL; concentration at 16 h (dog, plasma, oral, CBD concentration recorded in subjects, 16 hours post administration): 0.26 ng/mL; concentration at 32 h (dog, plasma, oral, CBD concentration recorded in subjects, 32 hours post administration): 0.28 ng/mL; concentration at 12 h (dog, plasma, oral, highest level of CBD recorded): 0.88 ng/mL; concentration at 12 h (dog, plasma, oral, lowest level of CBD recorded in a subject): 0.23 ng/mL; half-life (dog, plasma, po): 12.6 h; AUC (dog, plasma, po, 0.12 mg/kg, 0.12 mg/kg CBD in combination with 0.24 mg/kg THC): 30 to 50 ng·h/mL; Cmax (dog, plasma, po, 0.24 mg/kg): 5 to 69 ng/mL; AUC (dog, plasma, po, 0.24 mg/kg, 0.24 mg/kg CBD in combination with 0.12 mg/kg THC): 95 to 110 ng·h/mL; CBD concentration in blood plasma (individual dogs 1-4, 0.12 mg/kg CBD + 0.24 mg/kg THC oral once, 0 h): 0 ng/mL; CBD concentration in blood plasma (individual dogs 1-4, 0.12 mg/kg CBD + 0.24 mg/kg THC oral once, 0.67 h): 15.60 ng/mL and 18.10 ng/mL and 5.26 ng/mL and 10.10 ng/mL; CBD concentration in blood plasma (individual dogs 1-4, 0.12 mg/kg CBD + 0.24 mg/kg THC oral once, 1 h): 12.00 ng/mL and 13.60 ng/mL and 5.99 ng/mL and 13.10 ng/mL; CBD concentration in blood plasma (individual dogs 1-4, 0.12 mg/kg CBD + 0.24 mg/kg THC oral once, 1.5 h): 7.99 ng/mL and 9.07 ng/mL and 9.84 ng/mL; CBD concentration in blood plasma (individual dogs 1-4, 0.12 mg/kg CBD + 0.24 mg/kg THC oral once, 2 h): 4.48 ng/mL and 8.08 ng/mL and 8.72 ng/mL; CBD concentration in blood plasma (individual dogs 1-4, 0.12 mg/kg CBD + 0.24 mg/kg THC oral once, 3 h): 2.83 ng/mL and 2.33 ng/mL and 5.83 ng/mL and 6.25 ng/mL; CBD concentration in blood plasma (individual dogs 1-4, 0.12 mg/kg CBD + 0.24 mg/kg THC oral once, 4 h): 1.95 ng/mL and 1.24 ng/mL and 4.08 ng/mL and 4.31 ng/mL; CBD concentration in blood plasma (individual dogs 1-4, 0.12 mg/kg CBD + 0.24 mg/kg THC oral once, 6 h): 1.56 ng/mL and 0.76 ng/mL and 2.99 ng/mL and 2.75 ng/mL; CBD concentration in blood plasma (individual dogs 1-4, 0.12 mg/kg CBD + 0.24 mg/kg THC oral once, 8 h): 1.12 ng/mL and 0.53 ng/mL and 1.23 ng/mL and 2.32 ng/mL; CBD concentration in blood plasma (individual dogs 1-4, 0.12 mg/kg CBD + 0.24 mg/kg THC oral once, 12 h): 0.48 ng/mL and 0.23 ng/mL and 0.37 ng/mL and 0.55 ng/mL; CBD concentration in blood plasma (individual dogs 1-4, 0.12 mg/kg CBD + 0.24 mg/kg THC oral once, 16 h): 0.00 ng/mL (2×) and 0.26 ng/mL and 0.36 ng/mL; CBD concentration in blood plasma (individual dogs 1-4, 0.12 mg/kg CBD + 0.24 mg/kg THC oral once, 24 h): 0.00 ng/mL and 0.23 ng/mL; CBD concentration in blood plasma (individual dogs 5-8, 0.24 mg/kg CBD + 0.12 mg/kg THC oral once, 0 h): 0 ng/mL; CBD concentration in blood plasma (individual dogs 5-8, 0.24 mg/kg CBD + 0.12 mg/kg THC oral once, 0.67 h): 28.70 ng/mL and 28.10 ng/mL and 10.20 ng/mL and 53.40 ng/mL; CBD concentration in blood plasma (individual dogs 5-8, 0.24 mg/kg CBD + 0.12 mg/kg THC oral once, 1 h): 35.20 ng/mL and 20.10 ng/mL and 18.90 ng/mL and 69.10 ng/mL; CBD concentration in blood plasma (individual dogs 5-8, 0.24 mg/kg CBD + 0.12 mg/kg THC oral once, 1.5 h): 33.20 ng/mL and 27.00 ng/mL and 12.70 ng/mL and 34.60 ng/mL; CBD concentration in blood plasma (individual dogs 5-8, 0.24 mg/kg CBD + 0.12 mg/kg THC oral once, 2 h): 14.90 ng/mL and 12.60 ng/mL and 20.30 ng/mL; CBD concentration in blood plasma (individual dogs 5-8, 0.24 mg/kg CBD + 0.12 mg/kg THC oral once, 3 h): 6.33 ng/mL and 6.79 ng/mL and 7.66 ng/mL; CBD concentration in blood plasma (individual dogs 5-8, 0.24 mg/kg CBD + 0.12 mg/kg THC oral once, 4 h): 4.07 ng/mL and 4.40 ng/mL and 4.36 ng/mL; CBD concentration in blood plasma (individual dogs 5-8, 0.24 mg/kg CBD + 0.12 mg/kg THC oral once, 6 h): 3.40 ng/mL and 2.22 ng/mL and 5.74 ng/mL and 1.87 ng/mL; CBD concentration in blood plasma (individual dogs 5-8, 0.24 mg/kg CBD + 0.12 mg/kg THC oral once, 8 h): 4.68 ng/mL and 1.23 ng/mL and 4.36 ng/mL and 0.91 ng/mL; CBD concentration in blood plasma (individual dogs 5-8, 0.24 mg/kg CBD + 0.12 mg/kg THC oral once, 12 h): 0.63 ng/mL and 0.85 ng/mL and 0.72 ng/mL; CBD concentration in blood plasma (individual dogs 5-8, 0.24 mg/kg CBD + 0.12 mg/kg THC oral once, 16 h): 0.49 ng/mL and 0.65 ng/mL and 0.47 ng/mL; CBD concentration in blood plasma (individual dogs 5-8, 0.24 mg/kg CBD + 0.12 mg/kg THC oral once, 24 h): 0.28 ng/mL (2×) and 0.46 ng/mL; CBD concentration in blood plasma (individual dogs 5-8, 0.24 mg/kg CBD + 0.12 mg/kg THC oral once, 32 h): 0.39 ng/mL (2×) and 0.32 ng/mL; CBD concentration in blood plasma (individual dogs 5-8, 0.24 mg/kg CBD + 0.12 mg/kg THC oral once, 48 h): 0.00 ng/mL (2×) and 0.22 ng/mL and 0.31 ng/mL; CBD concentration in blood plasma (individual dogs 5-8, 0.24 mg/kg CBD + 0.12 mg/kg THC oral once, 72 h): 0.00 ng/mL; CBD in the subject's blood (up to 72 h after administration): detectable
